In paper PMC6106931 (Alzheimer's Research & Therapy, 2018):

Assay: Clinical safety, Study ALZ1005
Format: in vivo, human
[1] = MCI due to AD, JNJ-54861911 total, N=20
[2] = both atabecestat groups, 3 of 31 patients
[3] = preclinical AD, JNJ-54861911 total, N=11

Experimental: Safety and tolerability were assessed during the study by recording adverse events (AEs), clinically significant abnormalities, clinical laboratory tests, ECG, and vital signs and by performing physical, neurological, and MRI examinations. All enrolled participants were included in the safety analysis population.

C[C@@]1(c2cc(NC(=O)c3ccc(C#N)cn3)ccc2F)C=CSC(N)=N1 [atabecestat]
TEAE: Psoriasis [1]: ^0 n (%) | TEAE: Psychiatric disorders [1]: ^2 (10.0) n (%) | TEAE: Renal and urinary disorders [1]: ^1 (5.0) n (%) | TEAE: Renal colic [1]: ^1 (5.0) n (%) | TEAE: Reproductive system and breast disorders [1]: ^1 (5.0) n (%) | TEAE: Skin and subcutaneous tissue disorders [1]: ^2 (10.0) n (%) | TEAE: Somnolence [1]: ^0 n (%) | TEAE: Syncope [1]: ^0 n (%) | TEAE: Urticaria [1]: ^0 n (%) | TEAE: Vascular disorders [1]: ^0 n (%) | TEAE: Vulvovaginal candidiasis [1]: ^1 (5.0) n (%) | TEAE: Vulvovaginal pruritus [1]: ^1 (5.0) n (%) | TEAE accidental overdose (both atabecestat groups, 2 patients): 6.5% | TEAE psychiatric disorders [2]: 9.7% | TEAE skin and subcutaneous tissue disorders [2]: 9.7% | TEAE post-lumbar puncture syndrome (both atabecestat groups, 4 patients): 12.9% | TEAE SOC injury, poisoning, and procedural complications (both atabecestat groups, 5 of 31 patients): 16.1% | changes from baseline in clinical laboratory analytes, liver function tests, vital signs, neurologic and physical examinations (both studies): no clinically significant trends | deaths or TEAEs leading to discontinuation (both studies): no deaths or TEAEs leading to discontinuation | ECG parameters, mean and median changes over time from predose (early AD population): no treatment- or dose-related changes | Subjects with any TEAE (preclinical AD, 10 mg, N=5): ^1 (20.0%) n (%) | TEAE: Accidental overdose (preclinical AD, 10 mg, N=5): ^0 n (%) | TEAE: Anxiety (preclinical AD, 10 mg, N=5): ^0 n (%) | TEAE: Bladder cancer (preclinical AD, 10 mg, N=5): ^0 n (%) | TEAE: Conjunctivitis (preclinical AD, 10 mg, N=5): ^0 n (%) | TEAE: Dementia Alzheimer’s type (preclinical AD, 10 mg, N=5): ^0 n (%) | TEAE: Depressed mood (preclinical AD, 10 mg, N=5): ^0 n (%) | TEAE: Dermatitis allergic (preclinical AD, 10 mg, N=5): ^0 n (%) | TEAE: Dizziness (preclinical AD, 10 mg, N=5): ^0 n (%) | TEAE: Eczema vesicular (preclinical AD, 10 mg, N=5): ^0 n (%) | TEAE: Fatigue (preclinical AD, 10 mg, N=5): ^0 n (%) | TEAE: Gastrointestinal disorders (preclinical AD, 10 mg, N=5): ^0 n (%) | TEAE: General disorders and administration site conditions (preclinical AD, 10 mg, N=5): ^0 n (%) | TEAE: Headache (preclinical AD, 10 mg, N=5): ^0 n (%) | TEAE: Hypertension (preclinical AD, 10 mg, N=5): ^1 (20.^0) n (%) | TEAE: Infections and infestations (preclinical AD, 10 mg, N=5): ^0 n (%) | TEAE: Injury, poisoning and procedural complications (preclinical AD, 10 mg, N=5): ^0 n (%) | TEAE: Insomnia (preclinical AD, 10 mg, N=5): ^0 n (%) | TEAE: Irritability (preclinical AD, 10 mg, N=5): ^0 n (%) | TEAE: Musculoskeletal and connective tissue disorders (preclinical AD, 10 mg, N=5): ^0 n (%) | TEAE: Nasopharyngitis (preclinical AD, 10 mg, N=5): ^0 n (%) | TEAE: Nausea (preclinical AD, 10 mg, N=5): ^0 n (%) | TEAE: Neck pain (preclinical AD, 10 mg, N=5): ^0 n (%) | TEAE: Neoplasms benign, malignant and unspecified (preclinical AD, 10 mg, N=5): ^0 n (%) | TEAE: Nervous system disorders (preclinical AD, 10 mg, N=5): ^0 n (%) | TEAE: Post lumbar puncture syndrome (preclinical AD, 10 mg, N=5): ^0 n (%) | TEAE: Psoriasis (preclinical AD, 10 mg, N=5): ^0 n (%) | TEAE: Psychiatric disorders (preclinical AD, 10 mg, N=5): ^0 n (%) | TEAE: Renal and urinary disorders (preclinical AD, 10 mg, N=5): ^0 n (%) | TEAE: Renal colic (preclinical AD, 10 mg, N=5): ^0 n (%) | TEAE: Reproductive system and breast disorders (preclinical AD, 10 mg, N=5): ^0 n (%) | TEAE: Skin and subcutaneous tissue disorders (preclinical AD, 10 mg, N=5): ^0 n (%) | TEAE: Somnolence (preclinical AD, 10 mg, N=5): ^0 n (%) | TEAE: Syncope (preclinical AD, 10 mg, N=5): ^0 n (%) | TEAE: Urticaria (preclinical AD, 10 mg, N=5): ^0 n (%) | TEAE: Vascular disorders (preclinical AD, 10 mg, N=5): ^1 (20.0) n (%) | TEAE: Vulvovaginal candidiasis (preclinical AD, 10 mg, N=5): ^0 n (%) | TEAE: Vulvovaginal pruritus (preclinical AD, 10 mg, N=5): ^0 n (%) | Subjects with any TEAE (preclinical AD, 50 mg, N=6): ^2 (33.3) n (%) | TEAE: Accidental overdose (preclinical AD, 50 mg, N=6): ^0 n (%) | TEAE: Anxiety (preclinical AD, 50 mg, N=6): ^0 n (%) | TEAE: Bladder cancer (preclinical AD, 50 mg, N=6): ^0 n (%) | TEAE: Conjunctivitis (preclinical AD, 50 mg, N=6): ^0 n (%) | TEAE: Dementia Alzheimer’s type (preclinical AD, 50 mg, N=6): ^0 n (%) | TEAE: Depressed mood (preclinical AD, 50 mg, N=6): ^0 n (%) | TEAE: Dermatitis allergic (preclinical AD, 50 mg, N=6): ^0 n (%) | TEAE: Dizziness (preclinical AD, 50 mg, N=6): ^0 n (%) | TEAE: Eczema vesicular (preclinical AD, 50 mg, N=6): ^0 n (%) | TEAE: Fatigue (preclinical AD, 50 mg, N=6): ^1 (16.7^) n (%) | TEAE: Gastrointestinal disorders (preclinical AD, 50 mg, N=6): ^0 n (%) | TEAE: General disorders and administration site conditions (preclinical AD, 50 mg, N=6): ^1 (16.7) n (%) | TEAE: Headache (preclinical AD, 50 mg, N=6): ^0 n (%) | TEAE: Hypertension (preclinical AD, 50 mg, N=6): ^0 n (%) | TEAE: Infections and infestations (preclinical AD, 50 mg, N=6): ^0 n (%) | TEAE: Injury, poisoning and procedural complications (preclinical AD, 50 mg, N=6): ^1 (16.7) n (%) | TEAE: Insomnia (preclinical AD, 50 mg, N=6): ^1 (16.^7) n (%) | TEAE: Irritability (preclinical AD, 50 mg, N=6): ^0 n (%) | TEAE: Musculoskeletal and connective tissue disorders (preclinical AD, 50 mg, N=6): ^0 n (%) | TEAE: Nasopharyngitis (preclinical AD, 50 mg, N=6): ^0 n (%) | TEAE: Nausea (preclinical AD, 50 mg, N=6): ^0 n (%) | TEAE: Neck pain (preclinical AD, 50 mg, N=6): ^0 n (%) | TEAE: Neoplasms benign, malignant and unspecified (preclinical AD, 50 mg, N=6): ^0 n (%) | TEAE: Nervous system disorders (preclinical AD, 50 mg, N=6): ^0 n (%) | TEAE: Post lumbar puncture syndrome (preclinical AD, 50 mg, N=6): ^1 (16.7^) n (%) | TEAE: Psoriasis (preclinical AD, 50 mg, N=6): ^1 (16.^7) n (%) | TEAE: Psychiatric disorders (preclinical AD, 50 mg, N=6): ^1 (16.^7) n (%) | TEAE: Renal and urinary disorders (preclinical AD, 50 mg, N=6): ^0 n (%) | TEAE: Renal colic (preclinical AD, 50 mg, N=6): ^0 n (%) | TEAE: Reproductive system and breast disorders (preclinical AD, 50 mg, N=6): ^0 n (%) | TEAE: Skin and subcutaneous tissue disorders (preclinical AD, 50 mg, N=6): ^1 (16.^7) n (%) | TEAE: Somnolence (preclinical AD, 50 mg, N=6): ^0 n (%) | TEAE: Syncope (preclinical AD, 50 mg, N=6): ^0 n (%) | TEAE: Urticaria (preclinical AD, 50 mg, N=6): ^1 (16.^7) n (%) | TEAE: Vascular disorders (preclinical AD, 50 mg, N=6): ^0 n (%) | TEAE: Vulvovaginal candidiasis (preclinical AD, 50 mg, N=6): ^0 n (%) | TEAE: Vulvovaginal pruritus (preclinical AD, 50 mg, N=6): ^0 n (%) | Subjects with any TEAE [3]: ^3 (27.3) n (%) | TEAE: Fatigue [3]: ^1 (9.1) n (%) | TEAE: General disorders and administration site conditions [3]: ^1 (9.1) n (%) | TEAE: Hypertension [3]: ^1 (9.1) n (%) | TEAE: Injury, poisoning and procedural complications [3]: ^1 (9.1) n (%) | TEAE: Insomnia [3]: ^1 (9.1) n (%) | TEAE: Nervous system disorders [3]: ^0 n (%) | TEAE: Post lumbar puncture syndrome [3]: ^1 (9.1) n (%) | TEAE: Psoriasis [3]: ^1 (9.1) n (%) | TEAE: Psychiatric disorders [3]: ^1 (9.1) n (%) | TEAE: Skin and subcutaneous tissue disorders [3]: ^1 (9.1) n (%) | TEAE: Somnolence [3]: ^0 n (%) | TEAE: Urticaria [3]: ^1 (9.1) n (%) | TEAE: Vascular disorders [3]: ^1 (9.1) n (%)
